Data taken from patent US7939322B2, “Cells expressing pluripotency markers and expressing markers characteristic of the definitive endoderm” (Centocor Ortho Biotech Inc., priority 2008, dated 2011).

Experiments:
[1] = test system: Mouse Embryo Fibroblast (MEF); test: Cell cycle analysis of mitomycin treated feeder cells; format: cell-based
Method: MEF cells, derived from E13 to 13.5 mouse embryos, were purchased from Charles River. MEF cells were expanded in DMEM medium supplemented with 10% FBS (Hyclone), 2 mM glutamine, and 100 mM MEM nonessential amino acids. Sub-confluent MEF cell cultures were treated with 10 μg/ml mitomycin C (Sigma, St. Louis, Mo.) for 3 h to arrest cell division, then trypsinized and plated at 2×10^4/cm2 on 0.1% bovine gelatin-coated dishes. MEF cells from passage two through four were used as feeder layers. […] For cell cycle analysis, cells were stained with 7AAD, and analyzed on FACS Array.

[2] = test system: expanded cells derived from human embryonic stem cell line H9; test: Real-time PCR of DE and visceral endoderm markers in expanded cells; format: cell-based
Method: Real-time PCR amplification and quantitative analysis: Unless otherwise stated, all reagents were purchased from Applied Biosystems. Real-time PCR reactions were performed using the ABI PRISM® 7900 Sequence Detection System. TAQMAN® UNIVERSAL PCR MASTER MIX® (ABI, CA) was used with 20 ng of reverse transcribed RNA in a total reaction volume of 20 μl. Each cDNA sample was run in duplicate to correct for pipetting errors. Primers and FAM-labeled TAQMAN® probes were used at concentrations of 200 nM. The level of expression for each target gene was normalized using a human glyceraldehyde-3-phosphate dehydrogenase (GAPDH) endogenous control previously developed by Applied Biosystems. SOX-17 primers were designed using the PRIMERS program (ABI, CA) and were the following sequences: SOX-17: TGGCGCAGCAGATACCA, AGCGCCTTCCACGACTTG, and […]. After an initial incubation at 50° C. for 2 min followed by 95° C. for 10 min, samples were cycled 40 times in two stages—a denaturation step at 95° C. for 15 sec followed by an annealing/extension step at 60° C. for 1 min. Data analysis was carried out using GENEAMP®7000 Sequence Detection System software. For each primer/probe set, a Ct value was determined as the cycle number at which the fluorescence intensity reached a specific value in the middle of the exponential region of amplification. Relative gene expression levels were calculated using the comparative Ct method. Briefly, for each cDNA sample, the endogenous control Ct value was subtracted from the gene of interest Ct to give the delta Ct value (ΔCt). The normalized amount of target was calculated as 2-ΔCt, assuming amplification to be 100% efficiency. Final data were expressed relative to a calibrator sample.
Cultures derived from the parental human embryonic stem cell line H9 according to the methods described in Example 6 were passaged every 4-7 days. FIG. 5 depicts real-time PCR results for the expanded cells cultured in 2% FBS+DMEM-F12+100 ng/ml of activin-A+20 of WNT3A for three passages. […] There is a clear decrease in DE markers, such as SOX-17 and HNF-3 beta following each passage. […]

[3] = test system: EXPRES 01 cells; test: CXCR4 expression by FACS after DE differentiation; format: cell-based, human; details: passage 19, day 4; 100 nM GSK-3B inhibitor IX with 0.5% FBS, 20 ng/ml WNT-3a, 100 ng/ml activin-A (about 17% in earlier protocol without inhibitor)
Method: (§1) Adhered human embryonic stem cells were removed from culture plates by a five-minute incubation with TrypLE™ Express solution (Invitrogen, CA). Released cells were resuspended in human embryonic stem cell culture medium and recovered by centrifugation, followed by washing and resuspending the cells in a staining buffer consisting of 2% BSA, 0.05% sodium azide in PBS (Sigma, Mo.). As appropriate, the cells were Fc-receptor blocked for 15 minutes using a 0.1% γ-globulin (Sigma) solution. […] Controls included appropriate isotype matched antibodies, unstained cells, and cells stained only with secondary conjugated antibody. All incubations with antibodies were performed for 30 mins at 4° C., after which the cells were washed with the staining buffer. Samples that were stained with unconjugated primary antibodies were incubated for an additional 30 mins at 4° C. with secondary conjugated PE or -APC labeled antibodies. See Table IB for a list of secondary antibodies used. Washed cells were pelleted and resuspended in the staining buffer, and the cell surface molecules were identified using a FACS Array (BD Biosciences) instrument, collecting at least 10,000 events. […]

[4] = test system: EXPRES 02 cells; test: CXCR4 expression by FACS after DE differentiation; format: cell-based, human; details: passage 14, day 4; 100 nM GSK-3B inhibitor IX with 0.5% FBS, 20 ng/ml WNT-3a, 100 ng/ml activin-A (about 40% in earlier protocol without inhibitor)
Method: as §1

[5] = test system: human embryonic stem cell line H9; test: Attachment of single human embryonic stem cells on uncoated TCPS with or without ROCK inhibitor; format: cell-based; details: 10 μm ROCK inhibitor, 24 hrs after seeding on TCPS, hypoxic (approximately 3% O2), compared to cultures without ROCK inhibitor
Method: Cells from the human embryonic stem cell line H9 at passage 35 lines were cultured under hypoxic conditions (approximately 3% O2) for at least three passages. The cells were cultured in MEF-CM supplemented with 8 ng/ml of bFGF and plated on MATRIGEL coated plates according to Example 1. At approximately 60% confluency, the cultures were exposed to TrypLE™ Express solution (Invitrogen, CA) for 5 mins. Released cells were resuspended in DM-F12+2% FBS medium, recovered by centrifugation, and counted using a hemocytometer. The released cells were seeded at 1000-10,000 cells/cm^2 on tissue culture polystyrene (TCPS) flasks and cultured in DM-F12+2% FBS+100 ng/ml activin-A+20 ng/ml WNT-3A+50 ng/ml of IGF-I+0.1 mM mercaptoethanol (Invitrogen, CA), non-essential amino acids (1×, NEAA from Invitrogen, CA)+/−10 μm ROCK inhibitor (Y-27632, Calbiochem, CA) under hypoxic conditions (approximately 3% O2) at 37° C. in a standard tissue culture incubator. The TCPS flaks were not coated with MATRIGEL or other extracellular matrix proteins. The media was changed daily. The first passage cells are referred to as P1. […] EXPRES cells derived using the ROCK inhibitor, Y27632 were designated as EXPRES 15.

[6] = test system: EXPRES cells; test: Population doubling time of EXPRES cells in growth media; format: cell-based, human; details: H9-derived EXPRES cells on TCPS, hypoxic; IGF-I at 50 ng/ml added to growth media (DMEM-F12+2% FBS+100 ng/ml activin-A+20 ng/ml WNT-3A)
Method: Cells from the human embryonic stem cell lines H1 and H9 various passages (Passage 30-54) were cultured under hypoxic conditions (approximately 3% 02) for at least three passages. The cells were cultured in MEF-CM supplemented with 8 ng/ml of bFGF and plated on MATRIGEL coated plates according to Example 1. The cells were exposed to the DE protocol outlined in Example 5. At days 3-6, the cultures were exposed to TrypLE™ Express solution (Invitrogen, CA) for 5 mins. Released cells were resuspended in DMEM-F12+2% FBS medium, recovered by centrifugation, and counted using a hemocytometer. The released cells were seeded at 1000-10,000 cells/cm^2 on tissue culture polystyrene (TCPS) treated flasks and cultured in DMEM-F12+2% FBS+100 ng/ml activin-A+20 ng/ml WNT-3A under hypoxic conditions (approximately 3% O2) at 37° C. in standard tissue culture incubator. The TCPS flaks were not coated with MATRIGEL or other extracellular matrix proteins. The media was changed daily. In some cultures, the media was further supplemented with 10-50 ng/ml of IGF-I (insulin growth factor-I from R&D Systems, MN) or 1×ITS (Insulin, transferrin, and selenium from Invitrogen, Ca). In some of the culture conditions the basal media (DM-F12+2% FBS) was further supplemented with 0.1 mM mercaptoethanol (Invitrogen, CA) and non-essential amino acids (1×, NEAA from Invitrogen, CA). […]

[7] = test system: EXPRES 03 cells; test: Proliferation and cell cycle analysis (BRDU incorporation, 7AAD); format: cell-based, human
Method: Methods: Cells were seeded at 5,000-10,000 cells/cm^2 in Cell Bind tissue culture flasks (Corning) and cultured for 2-4 days. EXPRES 03 cells were cultured either in growth medium containing 2% FBS in DMEM/F12 and Activin-A (100 ng/ml), wnt3a (10-20 ng/ml) and IGF (50 ng/ml). For comparative proliferation analysis, IGF was sometimes omitted from the growth factor cocktail. Cell proliferation was analyzed using the APC BRDU Flow kit according to the Manufacturer's recommendations (BD Biosciences, San Diego, Calif.). Briefly, cells were pulsed with BRDU for 1-2 hrs at the end of culture period, released using Tryple E Express and counted. Cells were fixed in BD Cytofix/Cytosperm Buffer, incubated for 30 min, followed by incubation with BD Cytoperm buffer for 10 minutes on ice. Cells were then treated with DNAse for 1 hr at 37° C. to expose incorporated BRDU, followed by staining with APC conjugated anti-BRDU antibody. For cell cycle analysis, cells were stained with 7AAD, and analyzed on FACS Array.

[8] = addition of 50 ng/ml IGF-I and withdrawal of Activin-A and WNT-3A

## CO[C@@]12[C@H](COC(N)=O)C3=C(C(=O)C(C)=C(N)C3=O)N1C[C@@H]1N[C@@H]12 [mitomycin, mitomycin C]
[1]
  cells in G2/M phase: 64%

## WNT3A
[2]; WNT3A added to growth media containing activin-A
  expression of DE markers: significant boost

## O=C1Nc2cc(Br)ccc2/C1=C1/Nc2ccccc2/C1=N\O [GSK-3B inhibitor IX]
[3]
  CXCR4 positive cells: approximately 57%
[4]
  CXCR4 positive cells: approximately 86%

## C[C@@H](N)[C@H]1CC[C@H](C(=O)Nc2ccncc2)CC1 [Y-27632]
[5]
  number of attached cells: significantly larger number of attached cells

## IGF-I: insulin growth factor-I from R&D Systems; recombinant human IGF-1
[6]
  population doubling time: approximately 55 hrs
[2]; [8]
  expression of DE markers along with OCT-4: precipitous drop
  expression of visceral endoderm markers, such as SOX-7 and AFP: increase
[7]; BRDU exposure for 1 hour or more
  frequency of cells in S-phase, presence versus absence of IGF: only marginal differences
[7]; IGF 50 ng/ml, after 3-4 days
  number of cells grown in presence of IGF relative to absence of IGF: 2-3 times
